Assay results as given in patent publication US8530680B2, “System and method for controlling growth of microorganisms with brominated furanones” (Syracuse University, priority 2008, dated 2013).

How the values were obtained:
Format in all cases: cell-based
[1] = system: Trametes versicolor strain TV7B2-59; experiment: Fungal growth on MEA plates with furanone; set-up: key to growth on plate, TV7B2-59: −: No growth was observed; +: normal growth was seen; conditions: for growth on plate, TV7B2-59: 60 μg/mL, 7 days at 30° C.; for growth inhibition test, inhibitory concentration, TV7B2-59: tested at 1, 5, 30, 60 μg/mL, 7 days
Method: (§1) This Example examines the effect of brominated furanones on the growth of fungi associated with damage to building material. Six fungal strains were the subject of these experiments; Gloeophyllum trabeum (strains GT598 and GT599), Chaetomium globosum (wildtype strain and CG572), and Trametes versicolor (strains TV7B2-59 and TV57MAD277). The species were developed on 2% Malt-Extract Agar (MEA) plates and stored inverted at 4° C. The stocks were refreshed by streaking new plates every two months.
(§2) The brominated and non-brominated furanones were added to MAE agar plates at different concentrations. The brominated furanones were dissolved in either ethanol (“EtOH”) or methanol (“MeOH”) as stock solutions, as shown in Table 5. The non-brominated furanones were purchased from Sigma (St. Louis, Mo.). The furanone stocks were stored at 4° C.
(§3) MAE agar plates containing the same amounts of ethanol/methanol were also prepared as negative controls to eliminate any solvent effects. The plates were prepared using either 90 mm or 60 mm petri dishes and were stored inverted at 4° C. until use.
(§4) Different concentrations of furanones were studied to compare their antifungal activities. The plates were inoculated with the six fungal strains using a platinum loop and were incubated upside down at 30° C. for 7 days to monitor the growth. The initial screening was performed using a single 60 μg/mL furanone concentration.

[2] = system: Trametes versicolor strain TV57MAD277; experiment: Fungal growth on MEA plates with furanone; set-up: key to growth on plate, TV57MAD277: −: No growth was observed; +: normal growth was seen; conditions: for growth on plate, TV57MAD277: 60 μg/mL, 7 days at 30° C.; for growth inhibition test, inhibitory concentration, TV57MAD277: tested at 1, 5, 30, 60 μg/mL, 7 days
Method: as §1, §2, §3, §4

[3] = system: Chaetomium globosum wildtype strain (CG); experiment: Fungal growth on MEA plates with furanone; set-up: key to growth on plate, CG: −: No growth was observed; +: normal growth was seen; conditions: for growth on plate, CG: 60 μg/mL, 7 days at 30° C.; for growth inhibition test, inhibitory concentration, CG: tested at 1, 5, 30, 60 μg/mL, 7 days
Method: as §1, §2, §3, §4

[4] = system: Gloeophyllum trabeum strain GT599; experiment: Fungal growth on MEA plates with furanone; set-up: key to growth on plate, GT599: −: No growth was observed; +: normal growth was seen; conditions: for growth on plate, GT599: 60 μg/mL, 7 days at 30° C.; for growth inhibition test, inhibitory concentration, GT599: tested at 1, 5, 30, 60 μg/mL, 7 days
Method: as §1, §2, §3, §4

[5] = system: extracellular AI-2 activities of E. coli; experiment: AI-2 bioluminescence assay (V. harveyi BB170 reporter, E. coli supernatants); conditions: 60 μg/mL, E. coli culture 8 hours, supernatant on V. harveyi BB170
Method: To explore if brominated furanones have an interaction with quorum-sensing based on AI-2, a bioluminescence assay was conducted. Specifically, to examine whether the novel BFs have any inhibitory effects on universal QS signal AI-2, the bioluminescence of the reporter Vibrio harveyi (“V. harveyi”) strain BB170 was used as an indicator of AI-2 activities.
The E. coli strains RP437 [thr-1(Am) leuB6 his-4 metF159(Am) eda-50 rpsL1356 thi-1 ara-14 mtl-1 xyl-5 tonA31 tsx-78 lacY1 F-] and quorum-sensing mutant BW25113 ΔLuxS [ΔluxS::kan^r lacI^q rrnB3 ΔlacZ4787 hsdR514 Δ(araBAD)567 Δ (rhaBAD)568 rph-1] were routinely grown at 37° C. with shaking at 200 rpm in LB medium containing 10 g/L NaCl, 5 g/L yeast extract and 10 g/L tryptone. […]
The reporter strain V. harveyi BB170 was grown in AB medium at 30° C. for 16 hours. […] The subcultures were incubated at 30° C. and the bioluminescence was measured every hour as an indicator of AI-2 activity using a luminometer (Model 20/20m Turner BioSystems, Inc., Sunnyvale, Calif.). The colony-forming units (CFUs) of V. harveyi strain BB170 were counted after spreading the cell cultures on LM agar plates containing 10 g/L tryptone, 5 g/L yeast extract, 20 g/L NaCl and 15 g/L agar plates and incubating at 30° C. for 24 hours.
It was previously known that the V. harveyi BB170 strain produces luminescence in response to AI-2 but not in response to homoserine lactones (AHLs) as a result of a mutation in the AHL sensor gene. At low cell densities, the basal level of AI-2 will not trigger significant production of luminescence in V. harveyi BB170; however, at high cell densities, the extracellular AI-2 concentration will reach a certain threshold and induce the bioluminescence of V. harveyi. […]

E. coli = E. coli growth inhibition (results not shown); conditions: at / up to 60 μg/mL

Compound | growth on plate, TV7B2-59 [1] | growth inhibition test, inhibitory concentration, TV7B2-59 [1] | growth on plate, TV57MAD277 [2] | growth inhibition test, inhibitory concentration, TV57MAD277 [2] | growth on plate, CG [3] | growth inhibition test, inhibitory concentration, CG [3] | growth on plate, GT599 [4] | growth inhibition test, inhibitory concentration, GT599 [4] | reduction of extracellular AI-2 activity [5] | growth inhibition of E. coli (E. coli)
CCCCC1=C(Br)/C(=C/Br)OC1=O [BF1, 4-bromo-5Z-(bromomethylene)-3-butylfuran-2-one] | − | 5 µg/mL | − | 5 µg/mL | − | 30 µg/mL | − | 30 µg/mL |  | 
O=C1OC(=C(Br)Br)C=C1C(Br)Br [BF10, 3-(dibromomethyl)-5-(dibromomethylene)furan-2-one] | − | 30 µg/mL | − | 5 µg/mL | − | 30 µg/mL | − | 30 µg/mL | 31.0±5.1% | 
CC1=CC(=C(Br)Br)OC1=O [BF9, 5-(dibromomethylene)-3-methylfuran-2-one] | − | 5 µg/mL | − | 5 µg/mL | − | 5 µg/mL | − | 60 µg/mL | 42.2±0.3% | does not inhibit
CC1=C(Br)/C(=C/Br)OC1=O [BF8, 4-bromo-5Z-(bromomethylene)-3-methylfuran-2-one] | − | 30 µg/mL | − | 30 µg/mL | − | 5 µg/mL | − | 5 µg/mL | 72.9±1.0% | did not inhibit
